According to patent publication US20210355121A1, “FUSED TRICYCLIC KRAS INHIBITORS” (Incyte Corporation, priority 2020, published 2021):
Read-outs that look alike come from different tables or passages of the source.

Tests used:
KRAS G12C = KRAS G12C (Homo sapiens, UniProt P01116, G12C); test: KRAS G12C GDP-GTP exchange assay (bodipy-GDP for GppNHp, with SOS1); format: biochemical; details: 2.5 nM bodipy-loaded KRAS G12C, 2 hours pre-incubation with inhibitor, 2 hours after GppNHp-SOS1; read-out: G12C_exchange (KRAS_G12C exchange assay IC50)
KRAS G12C, sequence (P01116 1-188 isoform P01116-2 G12C): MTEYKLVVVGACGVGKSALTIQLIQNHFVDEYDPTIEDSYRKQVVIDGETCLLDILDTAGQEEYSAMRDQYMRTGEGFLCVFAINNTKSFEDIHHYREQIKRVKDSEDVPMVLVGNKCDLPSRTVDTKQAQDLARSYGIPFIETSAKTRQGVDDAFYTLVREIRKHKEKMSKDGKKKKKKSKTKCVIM
Description: The inhibitor potency of the exemplified compounds was determined in a fluorescence based guanine nucleotide exchange assay, which measures the exchange of bodipy-GDP (fluorescently labeled GDP) for GppNHp (Non-hydrolyzable GTP analog) to generate the active state of KRAS in the presence of SOS1 (guanine nucleotide exchange factor). Inhibitors were serially diluted in DMSO and a volume of 0.1 μL was transferred to the wells of a black low volume 384-well plate. 5 μL/well volume of bodipy-loaded KRAS G12C diluted to 5 nM in assay buffer (25 mM Hepes pH 7.5, 50 mM NaCl, 10 mM MgCl2 and 0.01% Brij-35) was added to the plate and pre-incubated with inhibitor for 2 hours at ambient temperature. Appropriate controls (enzyme with no inhibitor or with a G12C inhibitor (AMG-510)) were included on the plate. The exchange was initiated by the addition of a 5 μL/well volume containing 1 mM GppNHp and 300 nM SOS1 in assay buffer. The 10 μL/well reaction concentration of the bodipy-loaded KRAS G12C, GppNHp, and SOS1 were 2.5 nM, 500 uM, and 150 nM, respectively. The reaction plates were incubated at ambient temperature for 2 hours, a time estimated for complete GDP-GTP exchange in the absence of inhibitor. For the KRAS G12D and G12V mutants, similar guanine nucleotide exchange assays were used with 2.5 nM as final concentration for the bodipy loaded KRAS proteins and with 4 hours and 3 hours incubation after adding GppNHp-SOS1 mixture for G12D and G12V respectively. A cyclic peptide described to selectively bind G12D mutant (Sakamoto et al., BBRC 484.3 (2017), 605-611) or internal compounds with confirmed binding were used as positive controls in the assay plates. Fluorescence intensities were measured on a PheraStar plate reader instrument (BMG Labtech) with excitation at 485 nm and emission at 520 nm.
Either GraphPad prism or XLfit was used to analyze the data. The IC50 values were derived by fitting the data to a four parameter logistic equation producing a sigmoidal dose-response curve with a variable Hill coefficient. Prism equation: Y=Bottom+(Top−Bottom)/(1+10^((Log IC50−X)*Hill slope)); XLfit equation: Y=(A+((B−A)/(1+((X/C)^D)))) where X is the logarithm of inhibitor concentration and Y is the response.

[1] = tested on: MIA PaCa-2 (KRAS G12C) cells; test: KRAS_G12C cellular pERK HTRF assay; format: cell-based, human; details: phospho-ERK1/2 HTRF, 4 hours incubation, read-out: G12C_pERK (KRAS_G12C pERK assay IC50)
Description: MIA PaCa-2 (KRAS G12C; ATCC® CRL-1420), A427 (KRAS G12D; ATCC® HTB53), HPAF-II (KRAS G12D; ATCC® CRL-1997) and NCI-H838 (KRAS WT; ATCC® CRL-5844) cells are purchased from ATCC and maintained in RPMI 1640 media supplemented with 10% FBS (Gibco/Life Technologies). The cells are plated at 5000 cells per well (8 uL) into Greiner 384-well low volume, flat-bottom, tissue culture treated white plates and incubated overnight at 37° C., 5% CO2. The next morning, test compound stock solutions are diluted in media at 3× the final concentration, and 4 uL are added to the cells. The plate is mixed by gentle rotation for 30 seconds (250 rpm) at room temperature. The cells are incubated with the KRAS G12C and G12D compounds for 4 hours or 2 hours respectively at 37° C., 5% CO2.
4 uL of 4× lysis buffer with blocking reagent (1:25) (Cisbio) are added to each well and plates are rotated gently (300 rpm) for 30 minutes at room temperature. 4 uL per well of Cisbio anti Phospho-ERK 1/2 d2 is mixed with anti Phospho-ERK 1/2 Cryptate (1:1) are added to each well, mixed by rotation and incubated overnight in the dark at room temperature. Plates are read on the Pherastar plate reader at 665 nm and 620 nm wavelengths. IC50 determination is performed by fitting the curve of inhibitor percent inhibition versus the log of the inhibitor concentration using the GraphPad Prism 7 software.

C=CC(=O)N1CC[C@H](n2ncc3c(N4CC(N(C)C)C4)nc4c(F)c(-c5c(C)c(Cl)cc6[nH]ncc56)c(Cl)cc4c32)C[C@H]1CC#N (single isomer, unassigned) [Example 3a]
IC50 (KRAS G12C): ≤ 100 nM | IC50 ([1]; Homo sapiens, MIA PaCa-2): ≤ 100 nM

C=CC(=O)N1CC[C@H](n2ncc3c(N4CC(N(C)C)C4)nc4c(F)c(-c5c(C)c(Cl)cc6[nH]ncc56)c(Cl)cc4c32)C[C@H]1CC#N (single isomer, unassigned) [Example 3b]
IC50 (KRAS G12C): ≤ 100 nM | IC50 [1]: ≤ 100 nM

Cc1c(Cl)cc2[nH]ncc2c1-c1c(Cl)cc2c(nc(N3CC(N(C)C)C3)c3cnn([C@H]4CCN(C(=O)/C=C/CN(C)C)[C@H](CC#N)C4)c32)c1F (single isomer, unassigned) [Example 4a]
IC50 (KRAS G12C): ≤ 100 nM | IC50 ([1]; Homo sapiens, MIA PaCa-2): ≤ 100 nM

COC/C=C/C(=O)N1CC[C@H](n2ncc3c(N4CC(N(C)C)C4)nc4c(F)c(-c5c(C)c(Cl)cc6[nH]ncc56)c(Cl)cc4c32)C[C@H]1CC#N (single isomer, unassigned) [Example 5a]
IC50 (KRAS G12C): ≤ 100 nM | IC50 ([1]; Homo sapiens, MIA PaCa-2): ≤ 100 nM

Cc1c(Cl)cc2[nH]ncc2c1-c1c(Cl)cc2c(nc(N3CC(N(C)C)C3)c3cnn([C@H]4CCN(C(=O)/C=C/CF)[C@H](CC#N)C4)c32)c1F (single isomer, unassigned) [Example 6a]
IC50 (KRAS G12C): ≤ 100 nM | IC50 ([1]; Homo sapiens, MIA PaCa-2): ≤ 100 nM

Cc1c(Cl)cc2[nH]ncc2c1-c1c(Cl)cc2c(nc(N3CC(N(C)C)C3)c3cnn([C@H]4CCN(C(=O)/C=C/C(F)F)[C@H](CC#N)C4)c32)c1F (single isomer, unassigned) [Example 7a]
IC50 (KRAS G12C): ≤ 100 nM | IC50 ([1]; Homo sapiens, MIA PaCa-2): ≤ 100 nM

C=C(F)C(=O)N1CC[C@H](n2ncc3c(N4CC(N(C)C)C4)nc4c(F)c(-c5c(C)c(Cl)cc6[nH]ncc56)c(Cl)cc4c32)C[C@H]1CC#N (single isomer, unassigned) [Example 8a]
IC50 (KRAS G12C): ≤ 100 nM | IC50 ([1]; Homo sapiens, MIA PaCa-2): ≤ 100 nM

CC#CC(=O)N1CC[C@H](n2ncc3c(N4CC(N(C)C)C4)nc4c(F)c(-c5c(C)c(Cl)cc6[nH]ncc56)c(Cl)cc4c32)C[C@H]1CC#N (single isomer, unassigned) [Example 9a]
IC50 (KRAS G12C): ≤ 100 nM | IC50 ([1]; Homo sapiens, MIA PaCa-2): ≤ 100 nM

Cc1c(Cl)cc2[nH]ncc2c1-c1c(Cl)cc2c(nc(N3CC(C)(N(C)C)C3)c3cnn([C@H]4CCN(C(=O)/C=C/CN(C)C)[C@H](CC#N)C4)c32)c1F (single isomer, unassigned) [Example 10a]
IC50 (KRAS G12C): ≤ 100 nM | IC50 ([1]; Homo sapiens, MIA PaCa-2): ≤ 100 nM

CC#CC(=O)N1CC[C@H](n2ncc3c(N4CC(C)(N(C)C)C4)nc4c(F)c(-c5c(C)c(Cl)cc6[nH]ncc56)c(Cl)cc4c32)C[C@H]1CC#N (single isomer, unassigned) [Example 11a]
IC50 (KRAS G12C): ≤ 100 nM | IC50 ([1]; Homo sapiens, MIA PaCa-2): ≤ 100 nM

COC/C=C/C(=O)N1CC[C@H](n2ncc3c(N4CC(C)(N(C)C)C4)nc4c(F)c(-c5c(C)c(Cl)cc6[nH]ncc56)c(Cl)cc4c32)C[C@H]1CC#N (single isomer, unassigned) [Example 12a]
IC50 (KRAS G12C): ≤ 100 nM | IC50 ([1]; Homo sapiens, MIA PaCa-2): ≤ 100 nM

Cc1c(Cl)cc2[nH]ncc2c1-c1c(Cl)cc2c(nc(N3CC(C)(N(C)C)C3)c3cnn([C@H]4CCN(C(=O)/C=C/CF)[C@H](CC#N)C4)c32)c1F (single isomer, unassigned) [Example 13a]
IC50 (KRAS G12C): ≤ 100 nM | IC50 ([1]; Homo sapiens, MIA PaCa-2): ≤ 100 nM

Cc1c(Cl)cc2[nH]ncc2c1-c1c(Cl)cc2c(nc(N3CC(C)(N(C)C)C3)c3cnn([C@H]4CCN(C(=O)/C=C/C(F)F)[C@H](CC#N)C4)c32)c1F (single isomer, unassigned) [Example 14a]
IC50 (KRAS G12C): ≤ 100 nM | IC50 ([1]; Homo sapiens, MIA PaCa-2): ≤ 100 nM

C=C(F)C(=O)N1CC[C@H](n2ncc3c(N4CC(C)(N(C)C)C4)nc4c(F)c(-c5c(C)c(Cl)cc6[nH]ncc56)c(Cl)cc4c32)C[C@H]1CC#N (single isomer, unassigned) [Example 15a]
IC50 (KRAS G12C): ≤ 100 nM | IC50 ([1]; Homo sapiens, MIA PaCa-2): ≤ 100 nM

C=CC(=O)N1CC[C@H](n2ncc3c(N4CC(C)(N(C)C)C4)nc4c(F)c(-c5c(C)c(Cl)cc6[nH]ncc56)c(Cl)cc4c32)C[C@H]1CC#N (single isomer, unassigned) [Example 16a]
IC50 (KRAS G12C): ≤ 100 nM | IC50 ([1]; Homo sapiens, MIA PaCa-2): ≤ 100 nM

Cc1c(Cl)cc2[nH]ncc2c1-c1c(Cl)cc2c(nc(OC[C@@H]3CCCN3C)c3cnn([C@H]4CCN(C(=O)/C=C/CN(C)C)[C@H](CC#N)C4)c32)c1F (single isomer, unassigned) [Example 17a]
IC50 (KRAS G12C): ≤ 100 nM | IC50 ([1]; Homo sapiens, MIA PaCa-2): ≤ 100 nM

CC#CC(=O)N1CC[C@H](n2ncc3c(OC[C@@H]4CCCN4C)nc4c(F)c(-c5c(C)c(Cl)cc6[nH]ncc56)c(Cl)cc4c32)C[C@H]1CC#N (single isomer, unassigned) [Example 18a]
IC50 (KRAS G12C): ≤ 100 nM | IC50 ([1]; Homo sapiens, MIA PaCa-2): ≤ 100 nM

COC/C=C/C(=O)N1CC[C@H](n2ncc3c(OC[C@@H]4CCCN4C)nc4c(F)c(-c5c(C)c(Cl)cc6[nH]ncc56)c(Cl)cc4c32)C[C@H]1CC#N (single isomer, unassigned) [Example 19a]
IC50 (KRAS G12C): ≤ 100 nM | IC50 ([1]; Homo sapiens, MIA PaCa-2): ≤ 100 nM

C=CC(=O)N1CC[C@H](n2ncc3c(OC[C@@H]4CCCN4C)nc4c(F)c(-c5c(C)c(Cl)cc6[nH]ncc56)c(Cl)cc4c32)C[C@H]1CC#N (single isomer, unassigned) [Example 20a]
IC50 (KRAS G12C): ≤ 100 nM | IC50 ([1]; Homo sapiens, MIA PaCa-2): ≤ 100 nM

C=CC(=O)N1CC[C@H](n2ncc3c(OC[C@@H]4CCCN4C)nc4c(F)c(-c5c(C)c(Cl)cc6[nH]ncc56)c(Cl)cc4c32)C[C@H]1CC#N (single isomer, unassigned) [Example 20b]
IC50 (KRAS G12C): ≤ 100 nM

C=CC(=O)N1CC[C@H](n2ncc3c(N4CC(N(C)C)C4)nc4c(F)c(-c5ccc(F)c6cccnc56)c(Cl)cc4c32)C[C@H]1CC#N (single isomer, unassigned) [Example 21a]
IC50 (KRAS G12C): ≤ 100 nM | IC50 ([1]; Homo sapiens, MIA PaCa-2): ≤ 100 nM

C=CC(=O)N1CC[C@H](n2ncc3c(N4CC(N(C)C)C4)nc4c(F)c(-c5ccc(F)c6cccnc56)c(Cl)cc4c32)C[C@H]1CC#N (single isomer, unassigned) [Example 21b]
IC50 (KRAS G12C): ≤ 100 nM | IC50 [1]: ≤ 100 nM

C=CC(=O)N1CC[C@H](n2ncc3c(N4CC(N(C)C)C4)nc4c(F)c(-c5cccc(Cl)c5Cl)c(Cl)cc4c32)C[C@H]1CC#N (single isomer, unassigned) [Example 25a]
IC50 (KRAS G12C): ≤ 100 nM | IC50 ([1]; Homo sapiens, MIA PaCa-2): ≤ 100 nM

C=CC(=O)N1CC[C@H](n2ncc3c(N4CC(N(C)C)C4)nc4c(F)c(-c5cccc(Cl)c5Cl)c(Cl)cc4c32)C[C@H]1CC#N (single isomer, unassigned) [Example 25b]
IC50 (KRAS G12C): ≤ 100 nM | IC50 [1]: ≤ 100 nM

CC#CC(=O)N1CC[C@H](n2ncc3c(N4CC(N(C)C)C4)nc4c(F)c(-c5cccc(Cl)c5Cl)c(Cl)cc4c32)C[C@H]1CC#N (single isomer, unassigned) [Example 26a]
IC50 (KRAS G12C): ≤ 100 nM | IC50 ([1]; Homo sapiens, MIA PaCa-2): ≤ 100 nM

CC#CC(=O)N1CC[C@H](n2ncc3c(N4CC(N(C)C)C4)nc4c(F)c(-c5cccc(Cl)c5Cl)c(Cl)cc4c32)C[C@H]1CC#N (single isomer, unassigned) [Example 26b]
IC50 (KRAS G12C): ≤ 100 nM | IC50 [1]: ≤ 100 nM

COC/C=C/C(=O)N1CC[C@H](n2ccc3c(OC[C@@H]4CCCN4C)nc4c(F)c(-c5c(C)c(C)cc6[nH]ncc56)c(Cl)cc4c32)C[C@H]1CC#N (single isomer, unassigned) [Example 47a]
IC50 (KRAS G12C): ≤ 100 nM | IC50 ([1]; Homo sapiens, MIA PaCa-2): ≤ 100 nM
